Tests used:
Type in all cases: in vivo, mouse
[1] = tested on: CD-1 mice with plantar incision in the hind paw; assay: Plantar incision postoperative pain, von Frey mechanical sensitivity
Description: CD-1 mice were housed in conventional shoebox cages with 3-4 mice per cage, in temperature-controlled environment (20±1° C.), on a 12:12 h light/dark cycle, with ad libitum access to filtered water and chow (Envigo Teklad 2920x, irradiated). All mice underwent plantar incision in the right hind paw. Mice were anesthetized with 5% isoflurane at 2 L/min into a sealed induction chamber then maintained with 2.5% isoflurane at 500 mL/min through a nose cone. A 5-mm longitudinal incision was created, the flexor digitorum brevis muscle was elevated, and then a longitudinal incision was made through it. Two skin sutures closed the wound, and Polysporin antibiotic was applied. The mice were subcutaneously injected with either dexamethasone (DEXA; 0.5 mg/kg/day) or saline (PBS) once per day from the day before surgery to day 6 after surgery. Also, mice were administered 100 ug/kg/day (p.o.) of beraprost sodium, a PTGIR agonist, or saline from day 5 to 8 after plantar incision surgery. Mechanical sensitivity tests were performed using von Frey filaments (using the up-down method of Dixon) before and after the surgery on days 1, 7, 9, 14, 21 and 35. Mice were individually acclimated for at least 1 hour in transparent Plexiglas enclosures (5 cm×8.5 cm by 6 cm) before withdrawal thresholds were measured.

[2] = tested on: mice with chronic constriction injury (CCI) of the sciatic nerve; assay: Chronic constriction injury (CCI) neuropathic pain, von Frey mechanical paw-withdrawal threshold; settings: drug daily Day 0 to Day 6, vs saline
Description: Mice: CD-1 male and female mice aged 6-12 weeks (ICR:Crl, Charles River, St. Constant, QC) were used in these experiments. All mice were housed in standard shoebox cages with 2-4 (same-sex) per cage in a light (14:10 h, lights on at 07:00 h) and temperature-controlled (20±1° C.) environment with ad libidum access to food (Harlan Teklad 8604) and tap water. Mice were acclimated to the vivarium for 7 days post-arrival and before testing. Each mouse was used in a single drug experiment. Equal numbers of male and female mice were included in each cohort. Drugs: Dexamethasone (PromoCell, Heidelberg, Germany) was administered via daily subcutaneous injections at a dosage of 0.5 mg/kg/day. […] Before and after all injuries, mechanical paw-withdrawal threshold was measured with von Frey filaments using the up-down staircase method of Dixon (Chaplan et al., 1994), as previously described (Mogil et al., 2006). […] To quantify the acute effects of drugs on mechanical thresholds during drug exposure (on Day 4-6 after CCI or CFA), the percentage of maximum possible allodynia was quantified as: % allodynia=[(baseline threshold−post-drug threshold)/baseline threshold]×100. […] To quantify the duration of the entire CCI- or CFA-induced allodynic episode, the day-by-day mechanical thresholds of each subject was considered. […]

[3] = tested on: mice with hind paw injection of complete Freund's adjuvant (CFA); assay: CFA inflammatory pain, von Frey mechanical paw-withdrawal threshold; settings: for allodynia during the administration period after CFA / duration of the overall allodynia episode produced by CFA: drug daily Day 0 to Day 6, diclofenac 25, morphine 5, gabapentin 100 mg/kg/day i.p., lidocaine 2% 20 μl s.c. hind paw, vs saline; for development of allodynia after CFA in dexamethasone-treated mice: hind paw injection on Day 3 and Day 5, ipsilateral to CFA, with dexamethasone; for duration of CFA allodynia in the absence of dexamethasone / CFA-induced mechanical allodynia in the absence of dexamethasone: hind paw injection on day 3 and day 5, no dexamethasone; for CFA-induced mechanical allodynia in the absence of dexamethasone: day 6 or any other time point, vs vehicle
Description: Mice: CD-1 male and female mice aged 6-12 weeks (ICR:Crl, Charles River, St. Constant, QC) were used in these experiments. All mice were housed in standard shoebox cages with 2-4 (same-sex) per cage in a light (14:10 h, lights on at 07:00 h) and temperature-controlled (20±1° C.) environment with ad libidum access to food (Harlan Teklad 8604) and tap water. Mice were acclimated to the vivarium for 7 days post-arrival and before testing. Each mouse was used in a single drug experiment. Equal numbers of male and female mice were included in each cohort.
Drugs: Dexamethasone (PromoCell, Heidelberg, Germany) was administered via daily subcutaneous injections at a dosage of 0.5 mg/kg/day. Diclofenac, morphine, and gabapentin were administered via intraperitoneal (i.p.) injection at a dose of 25 mg/kg/day, 5 mg/kg/day, and 100 mg/kg/day, respectively. Lidocaine was administered via subcutaneous (s.c.) injection of 20 μl of 2% lidocaine into the plantar hind paw. All drugs other than dexamethasone were purchased from Sigma-Aldrich (St. Louis, MO, USA). Anti-Ly6G (BioX Cell [InVivoPlus anti-mouse Ly6G/Ly6C (Gr-1)]) and its isotype control (BioX Cell [InVivoPlus rat IgG2b isotype control, anti-keyhole limpet hemocyanin]) were injected at a dose of 125 μg/day. S100A8 and S100A9 were injected (10 μl) into the plantar surface of the inflamed (see below) hind paw at a dose of 1 μg/day.
Neutrophils: Neutrophils were isolated using the EasySep Mouse Neutrophil Enrichment kit (Stem Cell Technologies, Vancouver, Canada) as per manufacturer's instructions. Briefly, blood was collected by cardiac puncture in a 21-gauge needle coated with 10% EDTA and pooled from 2-3 mice in PBS/2 mM EDTA. Red blood cells were lysed after incubation in 0.83% NH4Cl for 10 min at 4° C., with the reaction stopped by adding PBS+10% FBS. Cells were centrifuged at 300 g for 5 min and resuspended in PBS+10% FBS. Cells were then incubated with rat serum and enrichment cocktail for 15 min at 4° C. and centrifuged at 300 g for 10 min. Cells were then resuspended in biotin selection cocktail for 15 min at 4° C., followed by magnetic beads for an additional 10 min, and placed into the separation magnet for 3 min. Non adherent cells were removed, and adherent cells washed off of the walls of the tube and resuspended in PBS for injection. Cells (5×10^6, in 10 μl) were injected into the plantar surface of the inflamed hind paw (see below) of mice within 30 min of isolation.
In most experiments, complete Freud's adjuvant (50% CFA, 20 μl volume) was injected into the plantar surface of the mouse's left hind paw as a model of inflammatory pain.
Before and after all injuries, mechanical paw-withdrawal threshold was measured with von Frey filaments using the up-down staircase method of Dixon (Chaplan et al., 1994), as previously described (Mogil et al., 2006). In every experiment, a baseline threshold determination was made on Day 1. Drugs or cells were administered daily from Day 0 to Day 6 (dexamethasone, diclofenac, gabapentin, lidocaine), on Day 3 and Day 5 (S100A8, S100A9, and neutrophils), or every other day from Day 0 to Day 20 (anti-Ly6G). von Frey testing on Day 6 occurred 1 hour after the drug injection on that day. Testing continued until both vehicle and drug groups had returned to their baseline statistically (with the exception of CFA+diclofenac), even though not all individual mice had necessarily recovered. Thus, in an attempt to minimize the duration that mice remained in pain, the length of experiments were different depending on the assay used and the purpose of the experiment, from 40 days post drug to 120 days post-drug.
Data analysis: Time course data of von Frey thresholds are shown graphically. To quantify the acute effects of drugs on mechanical thresholds during drug exposure (on Day 4-6 after CCI or CFA), the percentage of maximum possible allodynia was quantified as: % allodynia=[(baseline threshold−post-drug threshold)/baseline threshold]×100. […]

[4] = DEXA 0.5 mg/kg/day s.c. plus beraprost sodium 100 ug/kg/day p.o. day 5 to 8

Question: How did the “long-lasting DEXA-induced hyperalgesia after plantar incision” value [1, 4] turn out when `CC#CCC(C)[C@H](O)/C=C/[C@@H]1[C@H]2c3cccc(CCCC(=O)O)c3O[C@H]2C[C@H]1O` (mixture of isomers) [beraprost, beraprost sodium] was run?
Answer: prevented long-lasting DEXA-induced hyperalgesia

Question: And the “time to recovery after plantar incision” value [1, 4]?
Answer: recovered after one week

Question: What about the “duration of hypersensitivity after plantar incision” value ([1]; DEXA 0.5 mg/kg/day s.c., no beraprost) of the same molecule?
Answer: up to one month

Question: For `C[C@@H]1C[C@H]2[C@@H]3CCC4=CC(=O)C=C[C@]4(C)[C@@]3(F)[C@@H](O)C[C@]2(C)[C@@]1(O)C(=O)CO` [dexamethasone, Dexamethasone], which “hind paw allodynia at the end of the treatment period after CCI” value ([2]; day 6) is on record?
Answer: no effect

Question: `O=C(O)Cc1ccccc1Nc1c(Cl)cccc1Cl` [diclofenac, Diclofenac] was tested. Which “recovery to baseline / duration of CCI-induced allodynia” value [2] did it give?
Answer: prolong the duration

Question: What about the “allodynia during the administration period after CFA” value [3] of the same molecule?
Answer: reduced allodynia

Question: What about the “duration of the overall allodynia episode produced by CFA” value (shortened to “duration … by CFA”) [3] of the same molecule?
Answer: significantly prolonged the duration

Question: `NCC1(CC(=O)O)CCCCC1` [gabapentin] was tested. Which “allodynia during the administration period after CFA” value [3] did it give?
Answer: reduced allodynia

Question: What about the “duration … by CFA” value [3] of the same molecule?
Answer: without affecting the overall duration

Question: Which “allodynia during the administration period after CFA” value [3] does the source give for `CCN(CC)CC(=O)Nc1c(C)cccc1C` [lidocaine, Lidocaine] here?
Answer: reduced allodynia

Question: And the “duration … by CFA” value [3]?
Answer: without affecting the overall duration

Question: With `CN1CC[C@]23c4c5ccc(O)c4O[C@H]2[C@@H](O)C=C[C@H]3[C@H]1C5` [morphine] as the molecule, how does the “allodynia during the administration period after CFA” value [3] read?
Answer: reduced allodynia

Question: And the “duration … by CFA” value [3]?
Answer: without affecting the overall duration

B1: S100A8: neutrophil-released alarmin protein, injected into the hind paw at 1 μg/day (protein, UniProt P27005 2-89, looked up)
Protein S100-A8: PSELEKALSNLIDVYHNYSNIQGNHHALYKNDFKKMVTTECPQFVQNINIENLFRELDINSDNAINFEEFLAMVIKVGVASHKDSHKE
Question: With B1 as the molecule, how does the “development of allodynia after CFA in dexamethasone-treated mice” value [3] read?
Answer: prevented the development of allodynia entirely

Question: What about the “duration of CFA allodynia in the absence of dexamethasone” value [3] of the same molecule?
Answer: neither neutrophils nor S100A8/A9 significantly affected the duration

Question: What about the “CFA-induced mechanical allodynia in the absence of dexamethasone” value [3] of the same molecule?
Answer: No effect

B2: S100A9: neutrophil-released alarmin protein, injected into the hind paw at 1 μg/day (protein, UniProt P31725 2-113, looked up)
Protein S100-A9: ANKAPSQMERSITTIIDTFHQYSRKEGHPDTLSKKEFRQMVEAQLATFMKKEKRNEALINDIMEDLDTNQDNQLSFEECMMLMAKLIFACHEKLHENNPRGHGHSHGKGCGK
Question: Which “development of allodynia after CFA in dexamethasone-treated mice” value [3] does the source give for B2 here?
Answer: prevented the development of allodynia entirely

Question: And the “duration of CFA allodynia in the absence of dexamethasone” value [3]?
Answer: neither neutrophils nor S100A8/A9 significantly affected the duration

Question: And the “CFA-induced mechanical allodynia in the absence of dexamethasone” value [3]?
Answer: No effect
